# Laboratory results from patent US12364733B1, “Method for treating septic shock” (Inotrem, priority 2018, dated 2025).
# What was measured:
# septic shock patients = experiment: Phase IIa clinical trial with nangibotide: days alive and free from vasopressor, IMV or CRRT; type: in vivo, human; conditions: for difference in the number of CRRT (continuous renal replacement therapy) free days alive vs. placebo / difference in the number of IMV (invasive mechanical ventilation) free days alive vs. placebo / difference in the number of vasopressor free days alive vs. placebo: day 0 to day 28
# Procedure: This was a randomized, double-blind, two-stage, placebo-controlled study. As described in FIG. 7, the study was composed of 2 stages with a similar treatment regimen, in which 0.3, 1.0 or 3.0 mg/kg/h of nangibotide (corresponding to peptide LR12, having an amino acid sequence as set forth in SEQ ID NO: 9, also known as motrem) was tested versus placebo. All patients with a diagnosis of septic shock were considered for study participation. All potential study patients underwent standard care management procedures. Patients with evidence of septic shock according to the Sepsis-3 definition (Singer et al, JAMA 2016) were considered for inclusion (i.e., patients suffering from sepsis and having (i) persisting hypotension requiring vasopressors to maintain their mean arterial pressure ≥65 mm Hg and (ii) a serum lactate level >2 mmol/L (18 mg/dL) despite adequate volume resuscitation).
# After screening for eligibility, patients were randomized to one of the treatment arms. Then, they received either a 5 mg/kg loading dose of nangibotide over 15 minutes followed by a continuous intravenous (i.v.) infusion of nangibotide or a matching placebo on top of standard of care. Treatment with study drug was initiated as early as possible, but no later than 24 hours after the onset of septic shock, defined by the start of vasopressor therapy. Patients were treated until 12 (±2) hours after the resolution of their septic shock (defined as vasopressor withdrawal) with a maximum treatment duration of 5 days (120 hours).
# (§1) Adverse events (AEs) were coded using the MedDRA dictionary version 18.1. Treatment-emergent adverse events (TEAEs) were summarized and listed. Analysis was performed in 49 septic shock patients. The demographic and baseline characteristics were summarized in a descriptive fashion within each population: categorical variables were summarized by contingency tables (frequencies and percentages). sTREM-1 levels at day 1 were also described (mean, standard deviation, standard error, median, quartiles and range, minimum and maximum values). Mortality rates were reported by frequency and percentage. For continuous endpoints, i.e., the sequential organ failure assessment (SOFA), missing data were imputed using LOCF (Last Observation Carry-Forward). For time-to-event analyses, i.e., duration of invasive mechanical ventilation (IMV), duration of continuous renal replacement therapy (CRRT), survival, censored data techniques were utilized. In addition, a sensitivity analysis of time to event data (except survival) was performed using censoring at maximum limit for the corresponding observation period (i.e., either day 28 or day 90). […] The following comparisons were made: each nangibotide dose arm to placebo, all nangibotide doses combined versus placebo, and dose-response using an ordinal trend test. Exploratory composite endpoint: incidence (number and proportion) of patients alive at day 28 and free of vasopressor, free of IMV and free of CRRT were summarized by treatment and compared between treatments with a Fisher's exact test. For pharmacodynamic markers, log transformed data were represented as percentage change from baseline at day 5 or End of Infusion (EOI) if end of infusion was stopped before day 5. […] “All nangibotide” refers to analyses obtained by pooling data from 0.3, 1 and 3 mg/kg/h nangibotide-treated groups.
# [1] = tested on: circulating levels of endothelial injury markers, inflammatory markers and sTREM-1; experiment: Phase IIa clinical trial with nangibotide: pharmacodynamic markers; type: in vivo, human
# Procedure: The quantitative determination of sTREM-1 was carried out using the method described in Example 2.
# as §1
# [2] = baseline high sTREM-1 subgroup, 0.3 mg/kg/h
# [3] = baseline high sTREM-1 subgroup, 3 mg/kg/h
# [4] = baseline high sTREM-1 subgroup, all nangibotide
# [5] = baseline low sTREM-1 subgroup, 0.3 mg/kg/h
# [6] = baseline low sTREM-1 subgroup, 3 mg/kg/h
# [7] = baseline low sTREM-1 subgroup, all nangibotide
# [8] = whole population, all nangibotide
substance,measurement,setting,value
nangibotide (LQEEDAGEYGCM; TLT-1 peptide),proportion of patients alive and free of any medical support at day 28,"septic shock patients; all nangibotide group, patients with high circulating sTREM-1 at baseline (above 433 pg/mL), placebo 40%",70%
same,difference in the number of CRRT (continuous renal replacement therapy) free days alive vs. placebo,septic shock patients; [2],8.67 days
same,difference in the number of IMV (invasive mechanical ventilation) free days alive vs. placebo,septic shock patients; [2],2.63 days
same,difference in the number of vasopressor free days alive vs. placebo,septic shock patients; [2],4.07 days
same,difference in the number of CRRT (continuous renal replacement therapy) free days alive vs. placebo,septic shock patients; [3],7.37 days
same,difference in the number of IMV (invasive mechanical ventilation) free days alive vs. placebo,septic shock patients; [3],4.30 days
same,difference in the number of vasopressor free days alive vs. placebo,septic shock patients; [3],-0.48 days
same,difference in the number of CRRT (continuous renal replacement therapy) free days alive vs. placebo,septic shock patients; [4],7.85 days
same,difference in the number of IMV (invasive mechanical ventilation) free days alive vs. placebo,septic shock patients; [4],5.63 days
same,difference in the number of vasopressor free days alive vs. placebo,septic shock patients; [4],2.94 days
same,difference in the number of CRRT (continuous renal replacement therapy) free days alive vs. placebo,septic shock patients; [5],1.43 days
same,difference in the number of IMV (invasive mechanical ventilation) free days alive vs. placebo,septic shock patients; [5],3 days
same,difference in the number of vasopressor free days alive vs. placebo,septic shock patients; [5],2.29 days
same,difference in the number of CRRT (continuous renal replacement therapy) free days alive vs. placebo,septic shock patients; [6],0.89 days
same,difference in the number of IMV (invasive mechanical ventilation) free days alive vs. placebo,septic shock patients; [6],-6.32 days
same,difference in the number of vasopressor free days alive vs. placebo,septic shock patients; [6],0.07 days
same,difference in the number of CRRT (continuous renal replacement therapy) free days alive vs. placebo,septic shock patients; [7],0.77 days
same,difference in the number of IMV (invasive mechanical ventilation) free days alive vs. placebo,septic shock patients; [7],-1.30 days
same,difference in the number of vasopressor free days alive vs. placebo,septic shock patients; [7],0.64 days
same,"vasopressor use, invasive mechanical ventilation (IMV) use and renal replacement therapy (RRT) use vs. placebo",septic shock patients; no statistically significant differences,consistent numerical trend in favor of nangibotide
same,difference in the number of CRRT (continuous renal replacement therapy) free days alive vs. placebo,"septic shock patients; whole population, 0.3 mg/kg/h",4.10 days
same,difference in the number of IMV (invasive mechanical ventilation) free days alive vs. placebo,"septic shock patients; whole population, 0.3 mg/kg/h",2.32 days
same,difference in the number of CRRT (continuous renal replacement therapy) free days alive vs. placebo,"septic shock patients; whole population, 3 mg/kg/h",1.50 days
same,difference in the number of IMV (invasive mechanical ventilation) free days alive vs. placebo,"septic shock patients; whole population, 3 mg/kg/h",-2.08 days
same,difference in the number of CRRT (continuous renal replacement therapy) free days alive vs. placebo,septic shock patients; [8],2.70 days
same,difference in the number of IMV (invasive mechanical ventilation) free days alive vs. placebo,septic shock patients; [8],1.33 days
same,"Ang-2 level, change from baseline",[1]; G2 subgroup (baseline sTREM-1 above the median 433 pg/mL) vs whole population and G1,trend toward a more pronounced decrease
same,"IL-6 level, change from baseline",[1]; G2 subgroup vs whole population and G1,the same trend was observed
same,"circulating levels of endothelial injury markers (Ang-2, VCAM-1, VGEFR-1 and E-selectin), inflammatory markers (IL-8, IL-10, MCP-1, TNF-α and IL-10) and sTREM-1","[1]; during the treatment, nangibotide-treated patients",trend towards a decrease
same,sTREM-1 kinetics over time,[1]; subgroup of patients with high baseline sTREM-1 values,trend towards a decrease in sTREM-1
same,"Ang-2 level, treatment effect",[1]; whole population,no apparent treatment effect
same,sTREM-1 kinetics over time,"[1]; whole population, day 5/EOI from baseline",no apparent changes over time
